Data: patent US9217170B2, “Fluorescent detector systems for the detection of chemical perturbations in sterile storage devices” (Blood Cell Storage, Inc., priority 2004, dated 2015)
Where two headings read alike, the source gives them in different places. One block for each molecule: values may come before it.

Key:
[1] = pH 6
Method: (§1) Absorbance was measured at pH 6, 8, and 10: acid (pH 6) gave two bands of similar absorbance; pH 10 gave a single λmax (base). The emission spectra were determined by excitation at the absorbance λmax (base). The wavelength where emission spectra crossed is reported as λiso. The emission λmax was measured at pH 10. pKa was determined from fluorescence emission spectra.
(§2) Fluorescence versus pH of various SNAFL free acids were compared using an Ocean Optics USB2000 fiber optic spectrometer and a tungsten halogen light source (part number HL-2000 FHSA). The light source was equipped with a linear variable filter that allowed the wavelength and shape of the excitation beam to be adjusted. […] A cuvette holder (part number CUV-FL-DA) was directly attached to the light source and a fiber optic cable directed emitted light to the spectrometer. Excitation conditions are reported for each fluorescence spectrum (3000 msec irradiation at the indicated wavelength). Spectral data were collected on a personal computer using the Ocean Optics software and overlays of different spectra were captured. […]
(§3) The pH at which two molecular species (tautomers) are equally represented is defined as the pKa. […] The intensity of fluorescence at the emission maxima is divided by 2, and pH of the intersecting pH curve is calculated by interpolation between the nearest 2 curves.

[2] = pKa determination from fluorescence emission spectra of SNAFL analogs; settings: phosphate buffer, pH 6
Method: as §1, §2, §3

[3] = published / literature value; cited from earlier work

pKa [1]: 7.6
Molecule: 5′(and 6′)-carboxy-3,10-dihydroxy-spiro[7H-benzo[c]xanthene-7,1′(3′H)-isobenzofuran]-3′-one [SNAFL-1]

pKa [2]: 6.6
Molecule: O=C(O)CCc1cc2c(-c3ccccc3C(=O)O)c3ccc4cc(O)c(Cl)cc4c3oc-2cc1=O [EBIO-3, 2-(2-chloro-3-hydroxy-9-carboxyethyl-10-oxo-10H-benzo[c]xanthen-7-yl)benzoic acid]

Molecule: O=S1(=O)OC2(c3ccccc31)c1ccc3cc(O)ccc3c1Oc1c2ccc2cc(O)ccc12 [VITABLUE]
pKa [3]: 7.56
